According to patent publication US20240327382A1 (ALMAC DISCOVERY LIMITED, priority 2021, published 2024):
pIC50: −log10 of the molar value.

target: T1, Full-length USP19 (Homo sapiens, UniProt O94966); assay: USP19 fluorescence polarisation (FP) assay, Ubiquitin-Lys-TAMRA substrate; format: biochemical; conditions: average of at least two duplicate experiments
T1 construct: Full-length USP19 was purchased from Boston Biochem (E-576); purchased Boston Biochem E-576
T1 sequence (O94966 1-1318): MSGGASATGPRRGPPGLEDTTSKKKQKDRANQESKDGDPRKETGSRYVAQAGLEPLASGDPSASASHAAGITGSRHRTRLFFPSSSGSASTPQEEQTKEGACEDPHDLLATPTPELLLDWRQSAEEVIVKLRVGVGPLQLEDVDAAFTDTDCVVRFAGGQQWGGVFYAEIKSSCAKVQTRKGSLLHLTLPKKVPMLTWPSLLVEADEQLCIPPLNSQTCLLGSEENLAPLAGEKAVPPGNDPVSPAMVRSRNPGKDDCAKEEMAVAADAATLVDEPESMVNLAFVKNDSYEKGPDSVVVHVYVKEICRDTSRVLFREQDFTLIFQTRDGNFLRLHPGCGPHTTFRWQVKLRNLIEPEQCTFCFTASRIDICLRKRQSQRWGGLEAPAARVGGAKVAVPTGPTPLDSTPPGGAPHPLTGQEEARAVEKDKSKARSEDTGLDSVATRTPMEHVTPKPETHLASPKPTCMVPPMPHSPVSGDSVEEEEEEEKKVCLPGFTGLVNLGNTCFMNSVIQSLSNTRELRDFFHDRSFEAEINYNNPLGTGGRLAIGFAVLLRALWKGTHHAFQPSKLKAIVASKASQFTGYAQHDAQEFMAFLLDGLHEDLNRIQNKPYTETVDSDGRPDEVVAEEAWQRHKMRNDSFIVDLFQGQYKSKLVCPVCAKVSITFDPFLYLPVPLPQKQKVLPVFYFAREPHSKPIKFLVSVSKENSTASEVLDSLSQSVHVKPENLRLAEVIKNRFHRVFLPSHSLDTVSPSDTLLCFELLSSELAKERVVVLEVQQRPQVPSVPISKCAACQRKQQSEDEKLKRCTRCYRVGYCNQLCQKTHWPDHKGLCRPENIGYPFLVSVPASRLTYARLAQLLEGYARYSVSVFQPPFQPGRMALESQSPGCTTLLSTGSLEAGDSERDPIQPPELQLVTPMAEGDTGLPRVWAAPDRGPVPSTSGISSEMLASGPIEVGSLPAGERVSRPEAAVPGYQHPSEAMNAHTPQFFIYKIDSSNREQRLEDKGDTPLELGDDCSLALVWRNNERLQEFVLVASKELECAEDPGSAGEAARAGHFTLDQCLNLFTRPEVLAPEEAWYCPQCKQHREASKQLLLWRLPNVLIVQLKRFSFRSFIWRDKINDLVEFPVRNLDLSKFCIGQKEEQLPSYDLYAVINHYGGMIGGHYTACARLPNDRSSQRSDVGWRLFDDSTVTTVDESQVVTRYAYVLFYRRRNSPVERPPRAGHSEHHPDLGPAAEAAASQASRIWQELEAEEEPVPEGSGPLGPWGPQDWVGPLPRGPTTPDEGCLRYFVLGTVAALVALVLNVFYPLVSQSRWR
Description: USP19 activity was determined in a fluorescence polarisation (FP) homogeneous assay using the isopeptide Ubiquitin-Lys-TAMRA substrate (either AUB-101, Almac Sciences Scotland Limited, or U-558, Boston Biochem, both of which gave identical results). Full-length USP19 was purchased from Boston Biochem (E-576). Unless otherwise stated, all other reagents were purchased from Sigma. Enzymatic reactions were conducted in black flat bottom polystyrene 384-well plates (Nunc) and 30 μL total volume. USP19 (2.5 nM, 10 μL) was incubated in assay buffer (50 mM HEPES (pH 7.4), 150 mM NaCl, 5 mM DTT, 0.05% BSA (w/v), 0.05% CHAPS) in the presence or absence of inhibitor (10 μL). Inhibitors were stored as 10 mM DMSO stocks in an inert environment (low humidity, dark, low oxygen, rt) using the StoragePod® system (Roylan Developments) and serial dilutions were prepared in buffer just prior to the assay (from 200 μM to 2 μM, 8-18 data point curve). Following incubation at RT for 30 min, the enzymatic reactions were initiated by dispensing the Ub substrate (500 nM, 10 μL). FP was measured every 15 min over a period of 90 min (within the linear range of the assay) using a Synergy 4 plate reader (BioTek) exciting at 530 nm and measuring the amount of parallel and perpendicular light at 575 nm. The FP signal was subsequently normalised to the no compound control. Data were plotted and fitted, and the concentrations resulting in 50% inhibition (IC50) were calculated using the non-linear regression curve fitting model using GraphPad (Prism). IC50 values for the inhibitors of the invention are compiled in Tables 1 and 3 and represent the average of at least two duplicate experiments.

SMILES	pIC50
O=C(N1CC[C@H](Cn2cnc(-c3ccccc3)cc2=O)C2(CCCC2)C1)N1CCNC[C@H]1c1ccccc1 (single isomer, unassigned) [Example 13]	6.00 to 7.00
O=C(N1CC[C@H](Cn2ccc(-c3ccccc3)cc2=O)C2(CCCC2)C1)N1CCNC[C@H]1c1ccccc1 (single isomer, unassigned) [Example 15]	4.70 to 6.00
O=C(N1CCC(Cn2cnc(-c3ccccc3)cc2=O)CC1)N1CCNC[C@H]1c1ccccc1 [Example 1, (R)-6-Phenyl-3-((1-(2-phenylpiperazine-1-carbonyl)piperidin-4-yl)methyl)pyrimidin-4(3H)-one]	6.00 to 7.00
C[C@H](CC(F)(F)F)C(=O)N1CCC(Cn2cnc(-c3ccccc3)cc2=O)C2(CCCC2)C1 (stereo partly drawn) [Example 4, 6-Phenyl-3-((7-((R)-4,4,4-trifluoro-2-methylbutanoyl)-7-azaspiro[4.5]decan-10-yl)methyl)pyrimidin-4(3H)-one]	4.70 to 6.00
C[C@H](CC(F)(F)F)C(=O)N1CCC(Cn2ccc(-c3ccccc3)cc2=O)C2(CCCC2)C1 (stereo partly drawn) [Example 5, 4-Phenyl-1-((7-((R)-4,4,4-trifluoro-2-methylbutanoyl)-7-azaspiro[4.5]decan-10-yl)methyl)pyridin-2(1H)-one]	4.70 to 6.00
O=C(N1CCC(Cn2ccc(-c3ccccc3)cc2=O)CC1)N1CCNC[C@H]1c1ccccc1 [Example 6, (R)-4-Phenyl-1-((1-(2-phenylpiperazine-1-carbonyl)piperidin-4-yl)methyl)pyridin-2(1H)-one]	6.00 to 7.00
COC[C@H](CC(F)(F)F)C(=O)N1CCC(Cn2cnc(-c3ccccc3)cc2=O)C2(CCCC2)C1 (stereo partly drawn) [Example 7, 6-Phenyl-3-((7-((S)-4,4,4-trifluoro-2-(methoxymethyl)butanoyl)-7-azaspiro[4.5]decan-10-yl)methyl)pyrimidin-4(3H)-one]	4.70 to 6.00
O=C(N1CCC(Cn2cnc(-c3ccccc3)cc2=O)C2(CCCC2)C1)N1CCC[C@H]1c1ccccc1 (stereo partly drawn) [Example 8, 6-Phenyl-3-((7-((S)-2-phenylpyrrolidine-1-carbonyl)-7-azaspiro[4.5]decan-10-yl)methyl)pyrimidin-4(3H)-one]	6.00 to 7.00
O=C(NCc1ccccc1)N1CCC(Cn2cnc(-c3ccccc3)cc2=O)C2(CCCC2)C1 (stereo not shown) [Example 10, N-Benzyl-10-((6-oxo-4-phenylpyrimidin-1(6H)-yl)methyl)-7-azaspiro[4.5]decane-7-carboxamide]	6.00 to 7.00
N[C@@H]1CCN(C(=O)N2CCC(Cn3ccc(-c4ccccc4)cc3=O)CC2)[C@H](c2ccccc2)C1 [Example 17, 1-((1-((2S,4R)-4-Amino-2-phenylpiperidine-1-carbonyl)piperidin-4-yl)methyl)-4-phenylpyridin-2(1H)-one]	7.00 to 8.00
CC1(C)CN(C(=O)N2CCNC[C@H]2c2ccccc2)CCC1Cn1cnc(-c2ccccc2)cc1=O (stereo partly drawn) [Example 18, 3-((33-Dimethyl-1-((R)-2-phenylpiperazine-1-carbonyl)piperidin-4-yl)methyl)-6-phenylpyrimidin-4(3H)-one]	7.00 to 8.00
CC1(C)CN(C(=O)N2CCNC[C@H]2c2ccccc2)CCC1Cn1ccc(-c2ccccc2)cc1=O (stereo partly drawn) [Example 20, 1-((3,3-Dimethyl-1-((R)-2-phenylpiperazine-1-carbonyl)piperidin-4-yl)methyl)-4-phenylpyridin-2(1H)-one]	7.00 to 8.00

The next lines start with the values.

pIC50	SMILES
> 8.00	N[C@H]1C[C@@H](c2ccccc2)N(C(=O)N2CC[C@@H](Cn3ccc(-c4ccccc4)cc3=O)C3(CCCC3)C2)C[C@H]1F (racemic) [Example 85, 1-(((R)-7-((2S,4S,5R)-4-Amino-5-fluoro-2-phenylpiperidine-1-carbonyl)-7-azaspiro[4.5]decan-10-yl)methyl)-4-phenylpyridin-2(1H)-one and 1-(((R)-7-((2S,4S,5S)-4-Amino-5-fluoro-2-phenylpiperidine-1-carbonyl)-7-azaspiro[4.5]decan-10-yl)methyl)-4-phenylpyridin-2(1H)-one]
> 8.00	CN[C@@H]1CCN(C(=O)N2CC[C@@H](CN3CCC(c4ccccc4OC)=CC3=O)C3(CCCC3)C2)[C@H](c2ccc(F)cc2F)C1 (racemic) [Example 127, 1-(((R)-7-((2S,4R)-2-(2,4-Difluorophenyl)-4-(methylamino)piperidine-1-carbonyl)-7-azaspiro[4.5]decan-10-yl)methyl)-4-(2-methoxyphenyl)-5,6-dihydropyridin-2(1H)-one and 1-(((S)-7-((2S,4R)-2-(2,4-Difluorophenyl)-4-(methylamino)piperidine-1-carbonyl)-7-azaspiro[4.5]decan-10-yl)methyl)-4-(2-methoxyphenyl)-5,6-dihydropyridin-2(1H)-one]
7.00 to 8.00	N[C@@H]1CC[C@@H](c2ccccc2)N(C(=O)N2CC[C@@H](Cn3cnc(-c4ccccc4)cc3=O)C3(CCCC3)C2)C1 (racemic) [Example 188, 3-(((R)-7-((2S,5R)-5-Amino-2-phenylpiperidine-1-carbonyl)-7-azaspiro[4.5]decan-10-yl)methyl)-6-phenylpyrimidin-4(3H)-one and 3-(((R)-7-((2R,5S)-5-amino-2-phenylpiperidine-1-carbonyl)-7-azaspiro[4.5]decan-10-yl)methyl)-6-phenylpyrimidin-4(3H)-one]
7.00 to 8.00	O=C(N1CC=C(Cn2cnc(-c3ccccc3)cc2=O)C2(CCCC2)C1)N1CCNC[C@H]1c1ccccc1 (single isomer, unassigned) [Example 2]
> 8.00	O=C(N1CC[C@@H](Cn2cnc(-c3ccccc3)cc2=O)C2(CCCC2)C1)N1CCNC[C@H]1c1ccccc1 (single isomer, unassigned) [Example 14]
> 8.00	O=C(N1CC[C@@H](Cn2ccc(-c3ccccc3)cc2=O)C2(CCCC2)C1)N1CCNC[C@H]1c1ccccc1 (single isomer, unassigned) [Example 16]
7.00 to 8.00	N[C@@H]1CCN(C(=O)N2CCC(Cn3cnc(-c4ccccc4)cc3=O)CC2)[C@H](c2ccccc2)C1 [Example 9, 3-((1-((2S,4R)-4-Amino-2-phenylpiperidine-1-carbonyl)piperidin-4-yl)methyl)-6-phenylpyrimidin-4(3H)-one]
> 8.00	O=C(N1CCC(Cn2cnc(-c3ccccc3)cc2=O)C2(CCCC2)C1)N1CCNC[C@H]1c1cc(F)cc(F)c1 (stereo partly drawn) [Example 11, 3-((7-((R)-2-(3,5-Difluorophenyl)piperazine-1-carbonyl)-7-azaspiro[4.5]decan-10-yl)methyl)-6-phenylpyrimidin-4(3H)-one]
> 8.00	CC1(C)CN(C(=O)N2CC[C@@H](N)C[C@H]2c2ccccc2)CCC1Cn1cnc(-c2ccccc2)cc1=O (stereo partly drawn) [Example 19, 3-((1-((2S,4R)-4-Amino-2-phenylpiperidine-1-carbonyl)-3,3-dimethylpiperidin-4-yl)methyl)-6-phenylpyrimidin-4(3H)-one]
> 8.00	CC1(C)CN(C(=O)N2CC[C@@H](N)C[C@H]2c2ccccc2)CCC1Cn1ccc(-c2ccccc2)cc1=O (stereo partly drawn) [Example 21, 1-((1-((2S,4R)-4-Amino-2-phenylpiperidine-1-carbonyl)-3,3-dimethylpiperidin-4-yl)methyl)-4-phenylpyridin-2(1H)-one]
